Structures can show the parent of a compound that is named as a salt.
System: mice
Assay: Soporific action of hexobarbital
Settings: for Duration of sleep, % effect / Lateral position, % effect: hexobarbital alone = 100
[1] = 1 mg/kg i.p. + hexobarbital 100 mg/kg

CC(C)(CO)C(=O)C(=O)NCCCC(=O)O [KPA-Ca, calcium salt of ketopantoyl aminobutyrate]
Duration of sleep [1]: 44.6 ± 5.2 min | Lateral position [1]: 2.5 ± 0.17 min | Duration of sleep, % effect (1 mg/kg): 96.3% | Lateral position, % effect (1 mg/kg): 104.2% | Lateral position (10 mg/kg i.p. + hexobarbital 100 mg/kg): 2.4 ± 0.16 min | Duration of sleep (10 mg/kg i.p. + hexobarbital 100 mg/kg, P < 0.01): 67.2 ± 4.3 min | Duration of sleep, % effect (10 mg/kg): 145.1% | Lateral position, % effect (10 mg/kg): 100% | Lateral position (25 mg/kg i.p. + hexobarbital 100 mg/kg): 2.5 ± 0.2 min | Duration of sleep (25 mg/kg i.p. + hexobarbital 100 mg/kg, P < 0.001): 60.6 ± 1.9 min | Duration of sleep, % effect (25 mg/kg): 130.9% | Lateral position, % effect (25 mg/kg): 104.2% | Lateral position (50 mg/kg i.p. + hexobarbital 100 mg/kg): 2.3 ± 0.15 min | Duration of sleep (50 mg/kg i.p. + hexobarbital 100 mg/kg, P < 0.001): 70.7 ± 3.1 min | increase of sleep duration (50 mg/kg, hexobarbital): 52.7% | Duration of sleep, % effect (50 mg/kg): 152.7% | Lateral position, % effect (50 mg/kg): 95.8% | Lateral position (100 mg/kg i.p. + hexobarbital 100 mg/kg): 2.4 ± 0.22 min | Duration of sleep (100 mg/kg i.p. + hexobarbital 100 mg/kg, P < 0.001): 93.7 ± 4.3 min | increase of sleep duration over control group (maximum effect) (100 mg/kg, hexobarbital): 102.4% | Duration of sleep, % effect (100 mg/kg): 202.4% | Lateral position, % effect (100 mg/kg): 100% | Lateral position (150 mg/kg i.p. + hexobarbital 100 mg/kg): 2.5 ± 0.34 min | Duration of sleep (150 mg/kg i.p. + hexobarbital 100 mg/kg, P < 0.001): 86.4 ± 4 min | Duration of sleep, % effect (150 mg/kg): 186.6% | Lateral position, % effect (150 mg/kg): 104.2% | change in effect on raising the dose (above 100 mg/kg): not noticeable change in the effect | effect on the lateral position (hexobarbital): no effect on the lateral position
